# Measurements published in patent publication US5234934A, “Aminopropanol derivatives, process for their preparation and pharmaceutical compositions comprising the same” (priority 1989, dated 1993).
# Experiments:
# [1] = test system: aconitine-induced ECG alterations; assay: animal or person; assay type: in vivo, rat; settings: Rattus norvegicus; for change in vivo at 4 mg/kg / ED50: iv; for change in vivo at 4 mg/kg / change in vivo at 100 mg/kg: read-out: Effect % (antiarrhythmic); for ED50: read-out: ED50 iv. (antiarrhythmic); for change in vivo at 100 mg/kg: po
# Method: The test was carried out by using the modified method of Marmo et al. on rats weighing 160 to 200 g. The animals were narcotised by ethyl uretane (1.2 g/kg ip.). Aconitin was administered intravenously in a dose of 75 /ug/kg in the form of a bolus injection. The ECG alterations were monitored in standard II lead by 5 minutes after the administration of aconitine. The observed alterations were classified into classes 0 to 5. The compounds of the invention were administered 2 minutes or 60 minutes before the parenteral or oral administration of aconitine, respectively. […]
# class 1: sometimes an extrasystole occurs class 2: each second one is an extrasystole class 3: extrasystoles in groups class 4: each one is an extrasystole class 5: fibrillation, death
# (Marmo, E., DiGiacomo, S., Imperatore, A.: Arzeimittel-Forschung 20, 12/1970/)
# [2] = acute toxicity test in mice (Litchfield and Wilcoxon); assay type: in vivo, mouse; settings: mouse, in vivo, po., 14 days observation
# Method: The test for acute toxicity was carried out by using 10 white mice (CFLP strain) (both male and female), weighing 18 to 22 g in each dose group. The compounds of the invention were administered orally in a dose of 20 ml/kg.
# The animals were kept in a plastic box on wood chips in a room of room temperature. They could consume tap water and standard mouse feed ad libitum. The toxicity data were determined by the method of Litchfield and Wilcoxon (Litchfield, J. T., Wilcoxon, F. W.: J. Pharmacol. Exp. Ther. 96, 99/1949/).
# [3] = test system: hexobarbital narcosis; assay: narcosis potentiating effect (hexobarbital sleeping time); settings: for ED50: Mus musculus, po, read-out: ED50 (narcosis potentiation); for TI (therapeutic index): narcosis potentiation, mice, po.
# Method: The narcosis potentiating effect of the compounds of the invention were examined on white mice, with 6 animals in each group. The mice were administered orally with the compounds of the invention, then both the control and the test groups were intravenously added 40 mg/kg of hexobarbital in order to make the mice sleep (Kaergard et al.).
structure (smiles),measurement,setting,value
"CC(C)(C)NCC(O)CO/N=C1\CCCC\C1=C/c1ccccc1 (racemic) [Example 2, R,S-2-(E)-Phenylmethylene-1-(E)-[3-(1,1-dimethylethyl-amino)-2-hydroxy-propoxyimino]-cyclohexane]",change in vivo at 4 mg/kg,[1],-43%
same,LD50 at 336 h,[2],600 mg/kg
"CCCCCCNCC(O)CO/N=C1\CCCC\C1=C/c1ccccc1 (racemic) [Example 3, R,S-2-(E)-Phenylmethylene-1-(E)-(3-hexylamino-2-hydroxy-propoxyimino)-cyclohexane]",LD50 at 336 h,[2],> 1000 mg/kg
COc1ccc(CCNCC(O)CO/N=C2\CCCC\C2=C/c2ccccc2)cc1OC (racemic) [Example 7],ED50,[3],70 mg/kg
same,TI (therapeutic index),[3],14
same,LD50 at 336 h,[2],> 1000 mg/kg
"OC(CO/N=C1\CCCC\C1=C/c1ccccc1)CN1CCCC1 (racemic) [Example 8, R,S-2-(E)-Phenylmethylene-1-(E)-(3-pyrrolidinyl-2-hydroxy-propoxyimino)-cyclohexane]",LD50 at 336 h,[2],800 mg/kg
"OC(CO/N=C1\CCCC\C1=C/c1ccccc1)CN1CCCCC1 (racemic) [Example 9, R,S-2-(E)-Phenylmethylene-1-(E)-(3-piperidinyl-2-hydroxypropoxyimino)-cyclohexane]",ED50,[3],30 mg/kg
same,TI (therapeutic index),[3],23
same,LD50 at 336 h,[2],700 mg/kg
"CC(C)N(CC(O)CO/N=C1\CCCCC\C1=C/c1ccccc1)C(C)C (racemic) [Example 14, R,S-2-(E)-Phenylmethylene-1-(E)-{3-[bis-(1-methylethyl)-amino]-2-hydroxy-propoxyimino}-cycloheptane]",ED50,[3],80 mg/kg
same,TI (therapeutic index),[3],11
same,ED50,[1],1.64 mg/kg
same,change in vivo at 4 mg/kg,[1],-83%
same,LD50 at 336 h,[2],900 mg/kg
"C#CC(C)(C)NCC(O)CO/N=C1\CCCCC\C1=C/c1ccccc1 (racemic) [Example 16, R,S-2-(E)-Phenylmethylene-1-(E)-[3-(1,1-dimethylpropin-2-yl)amino-2-hydroxy-propoxyimino]-cycloheptane]",LD50 at 336 h,[2],> 1000 mg/kg
"CN1CCN(CC(O)CO/N=C2\CCCCC\C2=C/c2ccccc2)CC1 (racemic) [Example 17, R,S-2-(E)-Phenylmethylene-1-(E)-[3-(4-methyl-1-piperazinyl)-2-hydroxy-propoxyimino]-cycloheptane]",LD50 at 336 h,[2],> 1000 mg/kg
"CC(C)N(CC(O)CO/N=C1\CCCCCC\C1=C/c1ccccc1)C(C)C (racemic) [Example 19, R,S-2-(E)-Phenylmethylene-1-(E)-{3-[bis(1-methylethyl)-amino]-2-hydroxy-propoxyimino}-cyclooctane]",ED50,[3],26 mg/kg
same,TI (therapeutic index),[3],31
same,ED50,[1],3.29 mg/kg
same,change in vivo at 4 mg/kg,[1],-76%
same,LD50 at 336 h,[2],800 mg/kg
"CC(C)(C)NCC(O)CO/N=C1\CCC\C1=C/c1ccccc1 (racemic) [Example 22, R,S-2-(E)-Phenylmethylene-1-(E)-[3-(1,1-dimethylethylamino)-2-hydroxy-propoxyimino]-cyclopentane]",LD50 at 336 h,[2],900 mg/kg
"CC(C)(C)NCC(O)CO/N=C1\CCCC\C1=C/c1ccccc1Cl (racemic) [Example 23, R,S-(E)-(2-Chlorophenyl-methylene)-1-(E)-[3-(1,1-dimethylethylamino)-2-hydroxy-propoxyimino]-cyclohexane]",ED50,[3],16 mg/kg
same,TI (therapeutic index),[3],8
same,ED50,[1],0.36 mg/kg
same,change in vivo at 4 mg/kg,[1],-83%
same,LD50 at 336 h,[2],130 mg/kg
"OC(CNC1CC1)CO/N=C1\CCCC\C1=C/c1ccc(Cl)cc1 (racemic) [Example 27, R,S-2-(E)-(4-Chlorophenyl-methylene)-1-(E)-(3-cyclopropylamino-2-hydroxy-propoxyimino)-cyclohexane]",ED50,[3],35 mg/kg
same,TI (therapeutic index),[3],29
same,LD50 at 336 h,[2],~1000 mg/kg
"CC(C)NCC(O)CO/N=C1\CCCC\C1=C/c1ccc(Cl)cc1 (racemic) [Example 28, R,S-2-(E)-(4-Chlorophenyl-methylene)-1-(E)-[3-(1-methylethylamino)-2-hydroxy-propoxyimino]-cyclohexane]",ED50,[3],75 mg/kg
same,TI (therapeutic index),[3],20
same,LD50 at 336 h,[2],1500 mg/kg
"CC(C)(C)NCC(O)CO/N=C1\CCCC\C1=C/c1ccc(Cl)cc1 (racemic) [Example 31, R,S-2-(E)-(4-Chlorophenyl-methylene)-1-(E)-[3-(1,1-dimethylethylamino)-2'-hydroxy-propoxyimino]-cyclohexane]",LD50 at 336 h,[2],~1000 mg/kg
"CCCN(CCC)CC(O)CO/N=C1\CCCC\C1=C/c1ccc(Cl)c(Cl)c1 (racemic) [Example 34, R,S-2-(E)-(3,4-Dichlorophenyl-methylene)-1-(E)-(3-/bis-n-propyl/-amino-2-hydroxy-propoxyimino)-cyclohexane]",ED50,[3],145 mg/kg
same,TI (therapeutic index),[3],> 7
same,LD50 at 336 h,[2],> 1000 mg/kg
"CCCNCC(O)CO/N=C1\CCCC\C1=C/c1c(Cl)cccc1Cl (racemic) [Example 35, R,S-2-(E)-(2,6-Dichlorophenyl-methylene)-1-(E)-(3-propylamino-2-hydroxy-propoxyimino)-cyclohexane]",ED50,[3],11.5 mg/kg
same,TI (therapeutic index),[3],52
same,ED50,[1],1.84 mg/kg
same,change in vivo at 4 mg/kg,[1],-100%
same,LD50 at 336 h,[2],600 mg/kg
"COc1ccccc1/C=C1\CCCC\C1=N/OCC(O)CN1CCOCC1 (racemic) [Example 37, R,S-2-(E)-(2-Methoxyphenyl-methylene)-1-(E)-(3-morpholinyl-2-hydroxy-propoxyimino)-cyclohexane]",ED50,[3],50 mg/kg
same,TI (therapeutic index),[3],> 20
same,LD50 at 336 h,[2],> 1000 mg/kg
"COc1cccc(/C=C2\CCCC\C2=N/OCC(O)CN2CCN(Cc3ccccc3)CC2)c1 (racemic) [Example 39, R,S-2-(E)-(3-Methoxyphenyl-methylene)-1-(E)-{3-[(4-phenylmethyl)-1-piperazinyl]-2-hydroxy-propoxyimino}-cyclohexane]",LD50 at 336 h,[2],> 1000 mg/kg
"COc1ccc(/C=C2\CCCCC\C2=N/OCC(O)CNC2CC2)cc1 (racemic) [Example 42, R,S-2-(E)-(4-Methoxyphenyl-methylene)-1-(E)-(3-cyclopropylamino-2-hydroxy-propoxyimino)-cycloheptane]",ED50,[3],14.5 mg/kg
same,TI (therapeutic index),[3],> 69
same,LD50 at 336 h,[2],> 1000 mg/kg
"CCCCNCC(O)CO/N=C1\CCCCCC\C1=C/c1ccccc1 (racemic) [Example 49, R,S-2-(E)-Phenylmethylene-1-(E)-(3-butylamino-2-hydroxypropoxyimino)-cyclooctane]",LD50 at 336 h,[2],> 1000 mg/kg
"COc1ccc(/C=C2\CCCCC\C2=N/OCC(O)CNC(C)C)cc1 (racemic) [Example 50, R,S-2-(E)-(4-Methoxyphenyl-methylene)-1-(E)-/3-(1-methylethylamino)-2-hydroxy-propoxyimino/-cycloheptane]",LD50 at 336 h,[2],1000 mg/kg
"OC(CO/N=C1\CCCC\C1=C/c1ccccc1)CN1CCN(c2cccc(Cl)c2)CC1 (racemic) [Example 52, R,S-2-(E)-Phenylmethylene-1-(E)-{3-[4-(3-chlorophenyl)-1-piperazinyl]-2-hydroxy-propoxyimino}-cyclohexane]",LD50 at 336 h,[2],> 1000 mg/kg
"OC(CO/N=C1\CCCC\C1=C/c1ccccc1)CN1CCN(c2cccc(C(F)(F)F)c2)CC1 (racemic) [Example 53, R,S-2-(E)-Phenylmethylene-1-(E)-3-[4-(3-trifluoromethyl)-phenyl-1-piperazinyl]-2-hydroxy-propoxyimino-cyclohexane]",LD50 at 336 h,[2],> 1000 mg/kg
OC(CO/N=C1\CCCC\C1=C/c1ccccc1)CN1CCC(Cc2ccccc2)CC1 (racemic) [Example 54],ED50,[1],3.47 mg/kg
same,change in vivo at 4 mg/kg,[1],-56%
same,LD50 at 336 h,[2],600 mg/kg
"O=C(OC(CO/N=C1\CCCCCC\C1=C/c1ccccc1)CN1CCOCC1)c1ccccc1 (racemic) [Example 69, R,S-2-(E)-Phenylmethylene-1-(E)-[3'-(4-morpholinyl)-2'-benzoyloxy-propoxyimino]-cyclooctane]",LD50 at 336 h,[2],> 1000 mg/kg
"CNC1=Nc2ccc(Cl)cc2C(c2ccccc2)=[N+]([O-])C1 [Chlordiazepoxide, reference compound]",ED50,[3],10 mg/kg
same,TI (therapeutic index),[3],62
"COc1ccc([C@@H]2Sc3ccccc3N(CCN(C)C)C(=O)[C@@H]2OC(C)=O)cc1 [Dilthiazem, reference compound]",change in vivo at 4 mg/kg,[1],-27%
"CCCC(C)(COC(N)=O)COC(N)=O [Meprobamate, reference compound]",ED50,[3],260 mg/kg
same,TI (therapeutic index),[3],4.2
"Cc1cccc(C)c1OCC(C)N (centres unmarked) [Mexiletine, reference compound]",change in vivo at 4 mg/kg,[1],-21%
"CC(C)NCC(O)COc1cccc2[nH]ccc12 (centres unmarked) [Pindolol, reference compound]",change in vivo at 100 mg/kg,[1],-52%
"CC(C)NCC(O)COc1cccc2ccccc12 (centres unmarked) [Propranolol, reference compound]",ED50,[1],5.81 mg/kg
same,change in vivo at 4 mg/kg,[1],-7%
same,change in vivo at 100 mg/kg,[1],-50%
